Assay results reported in PubChem BioAssay (NCI).
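The compound was tested at five concentrations on cells cultured in 96-well plates, with a 48-hour exposure period. GI50 marks 50% less growth. The concentration for full growth arrest is given as TGI.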

What was measured:
Assay in all cases: NCI-60 cell line screen, 48 h
DU-145 prostate = test system: DU-145 prostate
HS 578T breast = test system: HS 578T breast
MDA-MB-435 = test system: MDA-MB-435
NCI/ADR-RES ovarian = test system: NCI/ADR-RES ovarian
PC-3 prostate = test system: PC-3 prostate
T-47D breast = test system: T-47D breast

SMILES | GI50 (DU-145 prostate) | TGI (DU-145 prostate) | GI50 (HS 578T breast) | TGI (HS 578T breast) | GI50 (MDA-MB-435) | TGI (MDA-MB-435) | GI50 (NCI/ADR-RES ovarian) | TGI (NCI/ADR-RES ovarian) | GI50 (PC-3 prostate) | TGI (PC-3 prostate) | GI50 (T-47D breast) | TGI (T-47D breast)
COc1ccc2c(c1)O/C(=C\c1ccc([N+](=O)[O-])s1)C2=O | 2.53 µM | > 24.8 µM | 2.61 µM | > 25.2 µM | > 100 µM | > 100 µM | 4.52 µM | > 100 µM | 1.81 µM | > 100 µM |  | 
CCN1C(=O)N(CC)C2C1NN=c1s/c(=C\c3cnc(C)n3C)c(=O)n12 (stereo not given) | 2.51 µM | > 100 µM |  |  | 0.321 µM | 1.36 µM | 10.3 µM | > 100 µM | 2.07 µM | > 100 µM | 4.81 µM | > 100 µM
CCCNC(=O)Nc1ccc2c(c1)Cc1cc(N(CCCl)CCCl)ccc1-2 |  | 60.9 µM |  | 61.4 µM |  | 68.9 µM |  | > 100 µM |  | > 100 µM |  | 
CCC(=O)Oc1ccc(/C=N/NC(N)=S)nc1 | 3.05 µM | > 100 µM | 30.9 µM | > 100 µM | 7.86 µM | > 100 µM | 3.27 µM | > 100 µM | 6.83 µM | > 100 µM | 5.83 µM | > 100 µM
C[C@H](CCCOS(C)(=O)=O)[C@H]1CC[C@H]2[C@@H]3CC[C@@H]4C[C@H](OS(C)(=O)=O)CC[C@]4(C)[C@H]3CC[C@]12C | 1160 µM |  | 423 µM |  | 1140 µM |  | 10.5 µM |  | 852 µM |  | 1040 µM | > 2500 µM
Nc1nc(Cl)c2ncn(Cc3ccc(-c4ccc(CCl)cc4)cc3)c2n1 | 12.6 µM | 25.6 µM | 43.4 µM | > 100 µM | 14.6 µM | 36.3 µM | 10.4 µM | 34.3 µM | 9.08 µM | > 100 µM |  | 
NC(N)=NC(N)=NCc1ccco1 | > 1250 µM | > 1250 µM | > 1250 µM | > 1250 µM | > 1250 µM | > 1250 µM | > 1250 µM | > 1250 µM |  |  | > 1250 µM | > 1250 µM
CC1(C)N=C(N)N=C(N)N1c1ccc(CCC(=O)Nc2cccc(S(=O)(=O)F)c2)cc1 | 5.81 µM | > 100 µM | > 100 µM | > 100 µM | 4.9 µM | > 100 µM | > 100 µM | > 100 µM | 0.597 µM | > 100 µM | 68.7 µM | > 100 µM
O=C(N/N=C/c1cccc(O)c1)c1ccc(C(F)(F)F)nc1Nc1cccc(C(F)(F)F)c1 | 1.82 µM | 10.7 µM | 1.86 µM | 5.86 µM | 1.65 µM | 4.23 µM | 2.04 µM | 5.93 µM | 1.66 µM | 7.67 µM | 1.54 µM | 7.08 µM
Cn1c(=O)c2[nH]cnc2n(C)c1=O.[CH2-]C(Cc1cccc2cc(C(=O)O)c(=O)oc12)OC.[Hg+2].[OH-] (stereo not given) | 17 µM | 31.6 µM | 22.2 µM | 57.3 µM | 16.9 µM | 30.6 µM | 19.8 µM | 38.1 µM | 18 µM | 31.8 µM | 18.9 µM | 63.5 µM
